Test results as given in patent US6869931B1, “Inhibition of angiogenesis by high molecular weight kininogen domain 3 peptide analogs” (Temple University - Of The Commonwealth System of Higher …, priority 1998, dated 2005).
Residues, ends and D or L forms follow the SMILES beside them. No end group written: not given here.

System: human umbilical vein endothelial cells (HUVEC)
Settings: for IC50: 48 h

Row | Compound | IC50 | Inhibition of endothelial cell proliferation (result in words) (HUVEC, bFGF-induced proliferation)
1 | H-TITKLNAENNATFYFK-OH [SEQ ID NO:9, Thr-Ile-Thr-Lys-Leu-Asn-Ala-Glu-Asn-Asn-Ala-Thr-Phe-Tyr-Phe-Lys] | < 0.8 µM | 
2 | H-NNATFYFKIDNVKKAR-OH [SEQ ID NO:10, Asn-Asn-Ala-Thr-Phe-Tyr-Phe-Lys-Ile-Asp-Asn-Val-Lys-Lys-Ala-Arg] | < 0.8 µM | 
3 | CC[C@H](C)[C@H](NC(=O)[C@H](CCCCN)NC(=O)[C@@H](N)[C@@H](C)O)C(=O)N[C@@H](CS)C(=O)N[C@H](C(=O)NCC(=O)N[C@@H](CS)C(=O)N1CCC[C@H]1C(=O)N[C@@H](CCCNC(=N)N)C(=O)N[C@@H](CC(=O)O)C(=O)N[C@H](C(=O)N1CCC[C@H]1C(=O)N[C@H](C(=O)N[C@@H](CC(N)=O)C(=O)N[C@@H](CO)C(=O)N1CCC[C@H]1C(=O)O)[C@@H](C)O)[C@@H](C)CC)C(C)C [SEQ ID NO:11, Thr-Lys-Ile-Cys-Val-Gly-Cys-Pro-Arg-Asp-Ile-Pro-Thr-Asn-Ser-Pro] (H-TKICVGCPRDIPTNSP-OH) | 30 µM | 
4 | YFIDFVARETTASKES-OH [SEQ ID NO:20, Tyr-Phe-Ile-Asp-Phe-Val-Ala-Arg-Glu-Thr-Thr-Ala-Ser-Lys-Glu-Ser] | 28 µM | inhibits endothelial cell proliferation
5 | H-LDANAEVYVVPWEKKI-OH [SEQ ID NO:16, Leu-Asp-Ala-Asn-Ala-Glu-Val-Tyr-Val-Val-Pro-Trp-Glu-Lys-Lys-Ile] | 44 µM | 
6 | H-ETKKLGQSLDANAEVY-OH [SEQ ID NO:15, Glu-Thr-Lys-Lys-Leu-Gly-Gln-Ser-Leu-Asp-Ala-Asn-Ala-Glu-Val-Tyr] | 42 µM | 
